Source: PubChem BioAssay AID1963435 (Molecular Pharmacology Branch, DTP, NCI, 2024)

Tested on: PANC-1 complex spheroid growth, percent test/control
Experiment: Anticancer human tumor PANC-1 cell line growth inhibition [Asc];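 note: spheroids exposed to agents for 7 days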;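 for viability, T/C: percent viability relative to DMSO vehicle wells taken as 100%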
Conditions: for IC50: curve of first compound; for viability, T/C: stronger effect = lower value
Procedure, shortened: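 Tumor cells were grown as complex spheroids with human endothelial cells (HUVEC) and human mesenchymal stem cells as stroma. Agents were tested alone and in combination, in half-log steps down from the clinical Cmax, or from 10 microM where Cmax was unknown.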

[1] = second compound 0.00949 µM, first compound 0.0316 µM
[2] = second compound 0.00949 µM, first compound 0.1 µM
[3] = second compound 0.00949 µM, first compound 0.316 µM
[4] = second compound 0.00949 µM, first compound 1 µM
[5] = second compound 0.00949 µM, first compound 3.16 µM
[6] = second compound 0.00949 µM, first compound 10 µM
[7] = second compound 0.03 µM, first compound 0.0316 µM
[8] = second compound 0.03 µM, first compound 0.1 µM
[9] = second compound 0.03 µM, first compound 0.316 µM
[10] = second compound 0.03 µM, first compound 1 µM
[11] = second compound 0.03 µM, first compound 3.16 µM
[12] = second compound 0.03 µM, first compound 10 µM
[13] = second compound 0.0949 µM, first compound 0.0316 µM
[14] = second compound 0.0949 µM, first compound 0.1 µM
[15] = second compound 0.0949 µM, first compound 0.316 µM
[16] = second compound 0.0949 µM, first compound 1 µM
[17] = second compound 0.0949 µM, first compound 3.16 µM
[18] = second compound 0.0949 µM, first compound 10 µM
[19] = second compound 0.3 µM, first compound 0.0316 µM
[20] = second compound 0.3 µM, first compound 0.1 µM
[21] = second compound 0.3 µM, first compound 0.316 µM
[22] = second compound 0.3 µM, first compound 1 µM
[23] = second compound 0.3 µM, first compound 3.16 µM
[24] = second compound 0.3 µM, first compound 10 µM
[25] = second compound 0.949 µM, first compound 0.0316 µM
[26] = second compound 0.949 µM, first compound 0.1 µM
[27] = second compound 0.949 µM, first compound 0.316 µM
[28] = second compound 0.949 µM, first compound 1 µM
[29] = second compound 0.949 µM, first compound 3.16 µM
[30] = second compound 0.949 µM, first compound 10 µM
[31] = second compound 3 µM, first compound 0.0316 µM
[32] = second compound 3 µM, first compound 0.1 µM
[33] = second compound 3 µM, first compound 0.316 µM
[34] = second compound 3 µM, first compound 1 µM
[35] = second compound 3 µM, first compound 3.16 µM
[36] = second compound 3 µM, first compound 10 µM

C#Cc1c(F)ccc2cc(O)cc(-c3ncc4c(N5CC6CCC(C5)N6)nc(OCC56CCCN5CC(F)C6)nc4c3F)c12 (stereo not drawn) + CCN1C(C(=O)NC23CCC(C(=O)O)(CC2)CC3)C(c2cccc(Cl)c2F)C2(C(=O)Nc3cc(Cl)ccc32)C12CCCCC2
IC50 (second compound 0.00949 µM): > 10 µM | IC50 (second compound 0.03 µM): > 10 µM | IC50 (second compound 0.0949 µM): > 10 µM | IC50 (second compound 0.3 µM): > 10 µM | IC50 (second compound 0.949 µM): > 10 µM | IC50 (second compound 3 µM): > 10 µM | viability, T/C [1]: 99.1% | viability, T/C [2]: 79.1% | viability, T/C [3]: 89.9% | viability, T/C [4]: 90.8% | viability, T/C [5]: 96.3% | viability, T/C [6]: 84% | viability, T/C [7]: 93.3% | viability, T/C [8]: 90.2% | viability, T/C [9]: 83.4% | viability, T/C [10]: 92.6% | viability, T/C [11]: 94.3% | viability, T/C [12]: 82.3% | viability, T/C [13]: 94% | viability, T/C [14]: 84.3% | viability, T/C [15]: 85% | viability, T/C [16]: 82.2% | viability, T/C [17]: 90.6% | viability, T/C [18]: 88.8% | viability, T/C [19]: 97% | viability, T/C [20]: 84.3% | viability, T/C [21]: 92.6% | viability, T/C [22]: 93.2% | viability, T/C [23]: 98.7% | viability, T/C [24]: 90.9% | viability, T/C [25]: 98.4% | viability, T/C [26]: 85.5% | viability, T/C [27]: 92.8% | viability, T/C [28]: 90.5% | viability, T/C [29]: 93.7% | viability, T/C [30]: 82.8% | viability, T/C [31]: 104% | viability, T/C [32]: 91.7% | viability, T/C [33]: 89.2% | viability, T/C [34]: 87.7% | viability, T/C [35]: 95.1% | viability, T/C [36]: 82.6%

C=C(F)C(=O)N1CCN(c2nc(OCC3CCCN3C)nc3c2CCN(c2cccc4cccc(Cl)c24)C3)CC1CC#N (stereo not drawn) + CCN1C(C(=O)NC23CCC(C(=O)O)(CC2)CC3)C(c2cccc(Cl)c2F)C2(C(=O)Nc3cc(Cl)ccc32)C12CCCCC2
IC50 (second compound 0.00949 µM): 7.22 µM | IC50 (second compound 0.03 µM): 6.88 µM | IC50 (second compound 0.0949 µM): 6.94 µM | IC50 (second compound 0.3 µM): 7.25 µM | IC50 (second compound 0.949 µM): 7.02 µM | IC50 (second compound 3 µM): 7.78 µM | viability, T/C [1]: 99% | viability, T/C [2]: 89.5% | viability, T/C [3]: 88.4% | viability, T/C [4]: 98.5% | viability, T/C [5]: 105% | viability, T/C [6]: 31.7% | viability, T/C [7]: 103% | viability, T/C [8]: 96.7% | viability, T/C [9]: 97% | viability, T/C [10]: 97.7% | viability, T/C [11]: 88% | viability, T/C [12]: 31.6% | viability, T/C [13]: 105% | viability, T/C [14]: 102% | viability, T/C [15]: 108% | viability, T/C [16]: 109% | viability, T/C [17]: 106% | viability, T/C [18]: 24.1% | viability, T/C [19]: 99.5% | viability, T/C [20]: 93.1% | viability, T/C [21]: 103% | viability, T/C [22]: 108% | viability, T/C [23]: 100% | viability, T/C [24]: 30.5% | viability, T/C [25]: 117% | viability, T/C [26]: 104% | viability, T/C [27]: 114% | viability, T/C [28]: 109% | viability, T/C [29]: 97.1% | viability, T/C [30]: 28.9% | viability, T/C [31]: 112% | viability, T/C [32]: 108% | viability, T/C [33]: 115% | viability, T/C [34]: 126% | viability, T/C [35]: 96.7% | viability, T/C [36]: 37%

C=CC(=O)N1CCN(c2nc(=O)n(-c3c(C)ccnc3C(C)C)c3nc(-c4c(O)cccc4F)c(F)cc23)C(C)C1 (stereo not drawn) + CCN1C(C(=O)NC23CCC(C(=O)O)(CC2)CC3)C(c2cccc(Cl)c2F)C2(C(=O)Nc3cc(Cl)ccc32)C12CCCCC2
IC50 (second compound 0.00949 µM): > 10 µM | IC50 (second compound 0.03 µM): > 10 µM | IC50 (second compound 0.0949 µM): > 10 µM | IC50 (second compound 0.3 µM): > 10 µM | IC50 (second compound 0.949 µM): > 10 µM | IC50 (second compound 3 µM): > 10 µM | viability, T/C [1]: 98.1% | viability, T/C [2]: 96.8% | viability, T/C [3]: 86% | viability, T/C [4]: 98.8% | viability, T/C [5]: 90.4% | viability, T/C [6]: 96% | viability, T/C [7]: 101% | viability, T/C [8]: 92.5% | viability, T/C [9]: 100% | viability, T/C [10]: 103% | viability, T/C [11]: 97.8% | viability, T/C [12]: 77.5% | viability, T/C [13]: 111% | viability, T/C [14]: 101% | viability, T/C [15]: 97.5% | viability, T/C [16]: 94% | viability, T/C [17]: 95.6% | viability, T/C [18]: 91.2% | viability, T/C [19]: 109% | viability, T/C [20]: 95.3% | viability, T/C [21]: 106% | viability, T/C [22]: 110% | viability, T/C [23]: 93.6% | viability, T/C [24]: 93.2% | viability, T/C [25]: 116% | viability, T/C [26]: 107% | viability, T/C [27]: 96.4% | viability, T/C [28]: 103% | viability, T/C [29]: 94.7% | viability, T/C [30]: 93.1% | viability, T/C [31]: 120% | viability, T/C [32]: 115% | viability, T/C [33]: 114% | viability, T/C [34]: 121% | viability, T/C [35]: 109% | viability, T/C [36]: 102%

CNC(C)C(=O)NC1CN(S(=O)(=O)c2cccc(S(=O)(=O)N3CCC4CCC(C(=O)NC(c5ccccc5)c5ccccc5)N4C(=O)C(NC(=O)C(C)NC)C3)c2)CCC2CCC(C(=O)NC(c3ccccc3)c3ccccc3)N2C1=O (stereo not drawn) + CCN1C(C(=O)NC23CCC(C(=O)O)(CC2)CC3)C(c2cccc(Cl)c2F)C2(C(=O)Nc3cc(Cl)ccc32)C12CCCCC2
IC50 (second compound 0.00949 µM): > 1 µM | IC50 (second compound 0.03 µM): > 1 µM | IC50 (second compound 0.0949 µM): > 1 µM | IC50 (second compound 0.3 µM): > 1 µM | IC50 (second compound 0.949 µM): > 1 µM | IC50 (second compound 3 µM): > 1 µM | viability, T/C (second compound 0.00949 µM, first compound 0.00316 µM): 104% | viability, T/C (second compound 0.00949 µM, first compound 0.01 µM): 96.6% | viability, T/C [1]: 103% | viability, T/C [2]: 89.4% | viability, T/C [3]: 97% | viability, T/C [4]: 86.5% | viability, T/C (second compound 0.03 µM, first compound 0.00316 µM): 103% | viability, T/C (second compound 0.03 µM, first compound 0.01 µM): 93.9% | viability, T/C [7]: 90.9% | viability, T/C [8]: 93.8% | viability, T/C [9]: 97.2% | viability, T/C [10]: 85.4% | viability, T/C (second compound 0.0949 µM, first compound 0.00316 µM): 90.3% | viability, T/C (second compound 0.0949 µM, first compound 0.01 µM): 96.9% | viability, T/C [13]: 89.4% | viability, T/C [14]: 91.2% | viability, T/C [15]: 92.2% | viability, T/C [16]: 86.8% | viability, T/C (second compound 0.3 µM, first compound 0.00316 µM): 114% | viability, T/C (second compound 0.3 µM, first compound 0.01 µM): 94.1% | viability, T/C [19]: 90.7% | viability, T/C [20]: 101% | viability, T/C [21]: 91.3% | viability, T/C [22]: 90.6% | viability, T/C (second compound 0.949 µM, first compound 0.00316 µM): 106% | viability, T/C (second compound 0.949 µM, first compound 0.01 µM): 100% | viability, T/C [25]: 106% | viability, T/C [26]: 97.8% | viability, T/C [27]: 100% | viability, T/C [28]: 93.2% | viability, T/C (second compound 3 µM, first compound 0.00316 µM): 113% | viability, T/C (second compound 3 µM, first compound 0.01 µM): 111% | viability, T/C [31]: 108% | viability, T/C [32]: 103% | viability, T/C [33]: 109% | viability, T/C [34]: 89.1%
